# Key:
# [1] = system: human CD14+ monocytes migrating across human BBB-endothelial cells; test: In vitro model of the human BBB (Boyden chamber): CD14+ monocyte migration; assay type: cell-based; conditions: human Ninj26-37 peptide 0.4 mM on BBB-ECs 1 h before cells; 24 h migration; vs scramble peptide
# Description: In vitro model of the BBB. BBB-ECs grown in primary cultures were used to generate an in vitro model of the human BBB, as published previously (Cayrol et al., Nature Immunol 9(2): 137-45 Epub 2007 Dec. 23). Human BBB-endothelial cells (25×10^3 cells/chamber) were grown in primary culture on 3 μm porous membrane (Becton Dickinson Labware, Franklin Lakes, N.J., USA), coated with 0.5% gelatin (Sigma), in endothelial cell culture media supplemented with 40% ACM, for 4 days to reach confluency. The BBB-endothelial cells were treated with 0.4 mM of scramble peptide (WRGNPGIRWAPH, SEQ ID NO: 12), 0.4 mM of human Ninj26-37 (PARWGWRHGPIN; SEQ ID NO: 5), 10 μg/ml of sheep IgG isotype control or 10 μg/ml of sheep anti-human Ninjurin-1 blocking Ab one hour prior to the addition of the leukocytes. Human ex vivo CD14^+ monocytes, or CD4^+, or CD8^+ lymphocytes were isolated, from consenting healthy donors, as described above. The leukocytes were added to the upper chamber (1×10^6 cells/chamber) and were allowed to migrate across human BBB-endothelial cells for 24 h. The cells that migrated through the BBB-endothelial cells, were recovered from the lower chamber and counted manually. All migration data shown represent at least 3 independent experiments performed in triplicate.
# SCI mice = test: Spinal cord injury (SCI), contusion with Infinite Horizons impactor; assay type: in vivo, C57BL/6 mice
# Description: Immunofluorescent stainings of human and mouse CNS material. Luxol Fast Blue (LFB) and H&E stainings (Wosik et al., 2007) were performed on human and mouse brain tissue specimens obtained from four MS patients (autopsy) and EAE/SCI animals. Sections showing acute demyelinating lesions and active perivascular mononuclear cell infiltration were selected (8 to 12 blocks per MS donor), and compared to normal-appearing white matter from the same donors (8 blocks per donor) and to non-neurological disease controls (3 donors; 9-11 blocks per donor). Mean age was 49±6 years and disease duration ranged from 3 to 23 years. The cause of death was pneumonia (2), urosepsis (1) and barbiturate intoxication (1). […] Fluorescence was visualized on a Leica™ DM6000 B epifluorescent microscope equipped with a DFC480 digital camera (Leica Microsystems, Wetzlar Germany) or on a Leica™ SP5 confocal microscope. Images were acquired using Openlab™ 4.0.4 (Improvision, Waltham, Mass.) and processed and analyzed with Adobe Photoshop™ CS2 (Adobe, Mountain View, Calif.). Numbers of CD11c+ DCs, F4/80+ macrophages and MHC II+ cells in spinal cord were quantified in pictures of 15 random fields of the spinal cord (two mice per treatment group). […]
# Spinal cord injury. […] Locomotor recovery was evaluated in an open-field test using the Basso Mouse Scale (BMS) (Basso D. M. et al., (2006). J Neurotrauma. 23(5): 635-59). […]
# EAE mice = test: Experimental autoimmune encephalomyelitis (EAE) induced with MOG35-55/CFA; assay type: in vivo, C57BL/6 mice
# Description: Flow Cytometric analysis of Ninjurin-1 expression. Cells were harvested and resuspended in FACS buffer composed of PBS supplemented with 1% FBS (Biosource-Invitrogen) and 0.1% NaN3 (Sigma). The cells were incubated with HS (Biosource-Invitrogen) to prevent unspecific binding. BBB-endothelial cells and PBMCs were incubated for 1 h at 4° C. with the primary unconjugated monoclonal mouse anti-Ninjurin-1 antibody (20 μg/ml, BD Biosciences), or with the Functional Grade Purified Mouse IgG2a Isotype Control (20 μg/ml, ebioscience, Inc., San Diego, Calif., USA). Cells were then incubated for 30 min at 4° C. with an allophycocyanin (APC)-conjugated goat anti-mouse Ig (2 μg/ml, BD Biosciences) to detect specific binding. Cells were then counter-stained for 30 min at 4° C. with mouse anti-human conjugated antibodies: Human Leukocyte Antigen (HLA)-ABC, Intracellular cell adhesion molecule (ICAM)-1, CD3, CD4, CD8, CD19, HLA-DR, CD14, CD83, CD123, CD209, CD11c or with corresponding isotype controls (all from BD Biosciences). To study the expression of Ninjurin-1 on murine immune cells, the mouse monoclonal anti-Ninjurin-1 antibody was biotinylated, to prevent unspecific binding of the secondary antibody. A buffer exchange was performed with a Slide-A-Lyzer® Dialysis Cassette (3.5-20K Cassettes, Thermo Scientific, Rockford, Ill., USA) to remove glycerol and bovine serum albumin (BSA) from the antibody solution using Melon™ Gel IgG Spin Purification Kit. Biotin was added using the EZ-Link® Micro NHS-PEO4-Biotinylation kit according to the manufacturer's instructions (Thermo Scientific). Murine peripheral blood or CNS mononuclear cells were incubated for 1 h at 4° C. with the primary biotinylated monoclonal mouse anti-Ninjurin-1 antibody (5 μg/ml, BD Biosciences), or with the Biotin-conjugated IgG2a, K isotype control (5 μg/ml, ebioscience). Cells were then incubated for 30 min at 4° C. with secondary antibody […]—APC (2 μg/ml, BD Biosciences). […] Cells were acquired on a BD LSR™ II Flow cytometer and analyzed using the BD FACSDiva™ software (BD Biosciences). […]
Sequence,migration of CD14+ monocytes across human BBB-endothelial cells [1],"infiltration of Iba1+ and CD11c+ myeloid cells in the spinal cord of SCI animals (SCI mice; murine Ninj26-37 200 μg i.p. b.i.d. day 1 to 7 after injury, day 7 post-injury, vs control peptide)","clinical scores (Basso mouse scale, BMS) after SCI (SCI mice; murine Ninj26-37 200 μg i.p. twice a day, vs control animals)","demyelination (tissue damage) and immune cell infiltration in EAE spinal cord, Luxol fast blue-H&E (EAE mice; Ninj26-37 200 μg i.p. twice daily day 3 to 23, vs control group)","infiltrating MHC II+, F4/80+ and CD11c+ myeloid cells in EAE spinal cord, immunofluorescence and cell counts (EAE mice; Ninj26-37 200 μg i.p. twice daily, 14 days post-immunization, vs control/scramble)","EAE neurological signs, symptoms and clinical scores (EAE mice; mouse Ninj26-37 200 μg i.p. twice a day, day 3 to 23 post-immunization, vs PBS (FIG. 6A) or scramble peptide (FIG. 15))"
PARWGWRHGPIN (SEQ ID NO: 5) (listed as Homo sapiens) [human Ninj26-37],significantly restricts the migration,–,–,–,–,–
PPRWGLRNRPIN (SEQ ID NO: 6) (Peptide corresponding to residues 26 to 37 of human Ninjurin-1) [mouse Ninj26-37],–,reduced,reduced,reduction in immune cell infiltration and demyelination,reduction of infiltrating,"significant reduction of the neurological signs, symptoms and clinical scores"
